The experiment addresses T1, C3a anaphylatoxin chemotactic receptor (Homo sapiens, UniProt Q16581).
T1 sequence (Q16581 whole entry): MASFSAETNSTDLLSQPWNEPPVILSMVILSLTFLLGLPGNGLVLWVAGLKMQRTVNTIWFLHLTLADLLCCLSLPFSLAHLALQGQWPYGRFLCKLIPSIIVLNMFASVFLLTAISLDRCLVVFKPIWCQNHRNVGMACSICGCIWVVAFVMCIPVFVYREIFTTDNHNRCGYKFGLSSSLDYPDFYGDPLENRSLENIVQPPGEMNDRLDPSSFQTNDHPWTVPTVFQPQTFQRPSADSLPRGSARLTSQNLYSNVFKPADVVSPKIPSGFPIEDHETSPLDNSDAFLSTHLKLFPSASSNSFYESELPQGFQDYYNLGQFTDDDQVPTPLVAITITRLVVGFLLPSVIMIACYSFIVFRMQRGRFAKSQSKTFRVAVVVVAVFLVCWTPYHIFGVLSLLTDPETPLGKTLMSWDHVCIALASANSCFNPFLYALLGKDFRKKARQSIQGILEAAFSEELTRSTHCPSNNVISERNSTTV
The experiment can be described thus: Displacement of [125I-C3a] from C3a receptor in human PBMC by scintillation counting. (In general: Displacement assays read how much labelled ligand stays bound in the presence of the test substance.)

What is called IC50 is the concentration needed to halve the response being measured. Read a high IC50 as lower potency. Compound `NC(N)=NCCC[C@H](NC(=O)COCC(c1ccccc1)c1ccccc1)C(=O)O` [(S)-2-(2-(2,2-diphenylethoxy)acetamido)-5-guanidinopentanoic acid] yielded a 50% inhibitory concentration (IC50) of 0.125 µM.
